Assay [1] deals with AR and/or GR target genes KLK4, KLF9, FKBP5, PER1, SGK1. Description: Biomarker analysis by RT-qPCR, 48 hours. The settings on record: CWR22PC and 22Rv1 cells. Type of assay: cell-based, Human. Here is the method: CWR22PC and 22RV1 cells were seeded at a density of 2 × 10^5 cells/well in 6-well plates in 2 mL of RPMI-1640 media supplemented with 10% charcoal-stripped serum (CSS). Cells were treated with 100 pM R1881, 30 nM dexamethasone, 0.5 µM compound 1, 1 µM of ARD1 or ARD2, or combinations thereof as indicated and maintained at 37° C. 48 hours later, media was removed, and cells were washed once with PBS and then harvested for mRNA analysis.
(§1) Adherent cells or cell pellets harvested for mRNA analysis were first washed once with PBS and then resuspended in 600 µL of RLT lysis buffer (Qiagen Inc.) supplemented with 1% of betamercaptoethanol. RNA was extracted by QIAcube using the RNeasy Mini QIAcube kit (Qiagen#74116) according to manufacturer’s instructions. The extracted RNA samples were then quantified using a Nanodrop 8000 Spectrophotometer. RT-qPCR reactions were set up in triplicate using 3 µL of 3 ng/ µL of RNA in 7 µL of pre-mixed SensiFAST™ SYBR No-ROX One-Step Kit reagents (BIOLINE# BIO-98005). The RT-qPCR reactions were run on a Bio-Rad CFX384 Real-Time PCR System and data was plotted with GraphPad Prism 8 software.
CWR22PC and 22Rv1 cells were seeded at a density of 2 × 10^5 cells/well in 6-well plates in 2 mL of RPMI-1640 media supplemented with 10% charcoal-stripped serum (CSS). […] 48 hours later, media was removed, and cells were washed once with PBS and then harvested for mRNA analysis.
Background: Quantitative PCR measures a nucleic acid by following its amplification.

The target in a further assay is T1, GR (Homo sapiens, UniProt P04150).
T1 sequence (P04150 1-777): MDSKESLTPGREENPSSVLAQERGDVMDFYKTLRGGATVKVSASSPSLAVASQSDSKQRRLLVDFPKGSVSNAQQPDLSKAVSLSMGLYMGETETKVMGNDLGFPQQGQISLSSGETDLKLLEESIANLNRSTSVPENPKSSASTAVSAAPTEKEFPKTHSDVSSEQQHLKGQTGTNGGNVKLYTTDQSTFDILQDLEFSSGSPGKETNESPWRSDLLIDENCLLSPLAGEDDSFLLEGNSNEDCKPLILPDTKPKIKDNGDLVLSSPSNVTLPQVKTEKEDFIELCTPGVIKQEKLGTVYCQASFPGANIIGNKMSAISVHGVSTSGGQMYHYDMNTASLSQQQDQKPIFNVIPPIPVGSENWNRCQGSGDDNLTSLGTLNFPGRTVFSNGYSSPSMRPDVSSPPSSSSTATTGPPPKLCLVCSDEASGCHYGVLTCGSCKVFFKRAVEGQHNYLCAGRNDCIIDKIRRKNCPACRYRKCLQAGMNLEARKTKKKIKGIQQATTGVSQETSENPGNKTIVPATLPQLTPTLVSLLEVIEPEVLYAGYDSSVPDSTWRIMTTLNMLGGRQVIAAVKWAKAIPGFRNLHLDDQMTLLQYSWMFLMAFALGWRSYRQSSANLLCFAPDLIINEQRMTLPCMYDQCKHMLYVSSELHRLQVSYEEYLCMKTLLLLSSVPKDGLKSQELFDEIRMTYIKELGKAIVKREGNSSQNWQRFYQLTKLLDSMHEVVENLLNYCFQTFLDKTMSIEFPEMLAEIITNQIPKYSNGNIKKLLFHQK
The settings on record: prostate cancer models with GR upregulated, in response to glucocorticoids; Zhou et al. 2019; cited from earlier work.

The subject of a further assay is PSA. Description: PSA AlphaLISA assay of cell supernatant (PSA secretion). The settings on record: CSS media; for R1881-induced PSA secretion: CWR22PC, + 0.5 µM compound 1. Type of assay: cell-based, Human. Background: In Alpha technology, singlet oxygen from a donor bead excites a nearby acceptor bead.
The next assay has as its system CWR22PC cells. Description: Cell growth (cell number) of prostate cancer cells under long-term treatment. Type of assay: cell-based, Human. Conditions: CSS media; for R1881-induced cell growth: CWR22PC, + 0.5 µM compound 1. How it is done: (§2) CWR22PC cells were seeded at a density of 2 × 10^5 cells/well in 6-well plates (Corning# 3516) in 2 mL of RPMI-1640 media supplemented with 10% charcoal-stripped serum (CSS) in duplicate. 24 hours later, cells were treated with 100 pM R1881, 30 nM dexamethasone, 0.5 µM compound 1, 1 µM of ARD1 or ARD2, or combinations thereof as indicated. Fresh media containing the indicated treatment was replaced every 5-7 days. Cell supernatant was collected on Day 12 and 19 and stored at -80° C. for PSA AlphaLISA assay. Cell images were taken on Day 12 and 19 using Leica DMi8 microscope (LEICA MICROSYSTEMS, INC. IL) with a 10X magnification. Cells were then trypsinized and cell numbers in each treatment group were counted three times, average counts were plotted with GraphPad Prism 8. Cell pellets were washed once with 1XPBS and then lysed in 600 µL RLT RNA lysis buffer and stored at -80° C. RNA was extracted for end of study (EOS) biomarker analysis for which the detailed procedures are described in the section RNA Extraction and RT-qPCR analysis.
The impact of ARD1 and ARD2 on the growth of prostate cancer cells was explored. CWR22PC cells were plated in charcoal-stripped serum (CSS) media and treated with vehicle or 0.1 nM R1881 (synthetic AR ligand) without or with 1 µM of ARD1 or ARD2. Media with treatments were replaced every 5-7 days and cells were maintained at 37° C. for 22 days. Supernatant of each group was harvested at day 22 to measure PSA secretion by PSA AlphaLISA assays.
as §2, with “24 hours later, cells were treated with 100 pM R1881, 30 nM dexamethasone, 0.5 µM compound 1, 1 µM of ARD1 or ARD2, or combinations thereof as indicated.” left out, “15” for “12”, “21” for “19”, “assay.” for “assay. Cell images were taken on Day 12 and 19 using Leica DMi8 microscope (LEICA MICROSYSTEMS, INC. IL) with a 10X magnification.”

For assay [2], the system named is AR and GR target genes in CWR22PC cells. Description: End of study (EOS) biomarker analysis by RT-qPCR. Conditions: CSS media, + 0.5 µM compound 1. Type of assay: cell-based, Human. Here is the method:
as §2, §1
CWR22PC cells were seeded at a density of 2 × 10^5 cells/well in 6-well plates (Corning# 3516) in 2 mL of RPMI-1640 media supplemented with 10% charcoal-stripped serum (CSS) in duplicate. […] Cells were then trypsinized and cell numbers in each treatment group were counted three times, average counts were plotted with GraphPad Prism 8. […]

In assay [3] the test system is AR target genes KLK3, KLK4, NKX3.1, FKBP5. The experiment in a line: Target gene assay (RT-qPCR, R1881-induced AR target genes). It counts as cell-based, Human. Conditions: 100 pM R1881, 24 hours post treatment. Here is the method:
(§3) 10,000 LNCaP and CWR22PC cells per well were plated in triplicate in poly-lysine coated 96-well plates (ThermoFisher#152039) in 200 µL of RPMI-1640 media supplemented with 10% charcoal-stripped serum. 24 hours later, cells were treated with 100 pM of R1881 and 8-point dilution for enzalutamide, ARD1 or ARD2 with concentrations ranging from 1 µM to 0.46 nM. After incubation at 37° C. for 24 hours, media was removed, and cells were washed once with PBS. 55 µL per well of iScript RT-qPCR sample preparation reagent (Bio-Rad #1708898) was added and incubated for 2 minutes before lysate was collected for mRNA analysis. RT-qPCR was set up in triplicate using 3 µL of lysate plus 7 µL of pre-mixed SensiFAST™ SYBR No-ROX One-Step Kit reagents (BIOLINE, Cat# BIO-98005) per reaction. The RT-qPCR reactions were run on a Bio-Rad CFX384 Real-Time PCR System and data was plotted with GraphPad Prism 8 software.
as §3, with “15,000” for “10,000”, “24 hours later, cells were treated with 100 pM of R1881 and 8-point dilution for enzalutamide, ARD1 or ARD2 with concentrations ranging from 1 µM to 0.46 nM.” left out, “75” for “55”

Setting [4] is: 19 days, 0.1 nM R1881 + 1 µM ARD1 or ARD2, + 30 nM dexamethasone.
Where [5] appears, read: 21 days, 0.1 nM R1881 + 1 µM ARV-110, + 30 nM dexamethasone.

For the compound `CC(C)N(C)c1ccc([C@H]2C[C@@]3(C)[C@@H](CC[C@@]3(O)C#CC(C)(C)C)[C@@H]3CCC4=CC(=O)CC[C@@H]4[C@H]32)cc1` [Compound 1], the “DEX-induced GR and AR target gene expression” value in assay [1] (0.5 µM compound 1 in the presence of 1 µM ARD1 or ARD2, 0.1 nM R1881, 30 nM DEX) is “fully reverses”; in assay [1] (0.5 µM compound 1 in the presence of 1 µM ARV-110, 0.1 nM R1881, 30 nM DEX) it was “fully reverses”. Further, the “sensitivity to enzalutamide treatment” value on GR is on record as “restores sensitivity to enzalutamide treatment”. Further, the “R1881-induced PSA secretion” value in the assay on PSA (setting [4]) and in the assay on PSA (setting [5]) was “fully reverses” each time. The R1881-induced cell growth result with CWR22PC cells (setting [4]) and in the assay with CWR22PC cells (setting [5]) was “fully reverses” each time. Besides, the “R1881-induced target gene (biomarker) expression” value in assay [2] (day 19 EOS, 0.1 nM R1881 + 1 µM ARD1 or ARD2, + 30 nM dexamethasone) was “fully reverses”; in assay [2] (day 21 EOS, 0.1 nM R1881 + 1 µM ARV-110, + 30 nM dexamethasone) it was “fully reverses”.
With `C[C@]1(O)CC[C@H]2[C@@H]3CCC4=CC(=O)CCC4=C3C=C[C@@]21C` [Compound R1881], the PSA secretion result in the assay on PSA (CWR22PC cells, 0.1 nM R1881 without or with 1 µM ARD1 or ARD2, day 22) is “promotes”. The CWR22PC cell growth entry in the assay with CWR22PC cells (0.1 nM R1881 without or with 1 µM ARD1 or ARD2, 22 days) is “promotes”.
With `CNC(=O)c1ccc(N2C(=S)N(c3ccc(C#N)c(C(F)(F)F)c3)C(=O)C2(C)C)cc1F` [Enzalutamide, enzalutamide], in assay [3] (CWR22PC cells), the “AR target gene FKBP5 induced by R1881” value is listed as “inhibit”, the “AR target gene KLK3 induced by R1881” value is reported as “inhibit”, the “AR target gene KLK4 induced by R1881” value was “inhibit” and the “AR target gene NKX3.1 induced by R1881” value is “inhibit”. Further, in assay [3] (LNCaP cells), the “AR target gene FKBP5 induced by R1881” value was “inhibit”, the “AR target gene KLK3 induced by R1881” value is “inhibit”, the “AR target gene KLK4 induced by R1881” value is on record as “inhibit” and the “AR target gene NKX3.1 induced by R1881” value is “inhibit”.

The values are drawn from patent US20230302014A1, “USES OF GLUCOCORTICOID RECEPTOR (GR) ANTAGONIST AND ANDROGEN RECEPTOR (AR) DEGRADER COMBINATIONS” (ORIC Pharmaceuticals, Inc., priority 2020, published 2023).
